{
  "source": "ChEMBL document CHEMBL6134892",
  "about": "“Discovery and Evaluation of DA-302168S as an Efficacious Oral Small-Molecule Glucagon-Like Peptide-1 Receptor Agonist” (J Med Chem, 2025)",
  "key": {"[1]": {"biological_target": "Glucagon-like peptide 1 receptor (Homo sapiens, UniProt P43220)", "sequence (P43220 whole entry)": "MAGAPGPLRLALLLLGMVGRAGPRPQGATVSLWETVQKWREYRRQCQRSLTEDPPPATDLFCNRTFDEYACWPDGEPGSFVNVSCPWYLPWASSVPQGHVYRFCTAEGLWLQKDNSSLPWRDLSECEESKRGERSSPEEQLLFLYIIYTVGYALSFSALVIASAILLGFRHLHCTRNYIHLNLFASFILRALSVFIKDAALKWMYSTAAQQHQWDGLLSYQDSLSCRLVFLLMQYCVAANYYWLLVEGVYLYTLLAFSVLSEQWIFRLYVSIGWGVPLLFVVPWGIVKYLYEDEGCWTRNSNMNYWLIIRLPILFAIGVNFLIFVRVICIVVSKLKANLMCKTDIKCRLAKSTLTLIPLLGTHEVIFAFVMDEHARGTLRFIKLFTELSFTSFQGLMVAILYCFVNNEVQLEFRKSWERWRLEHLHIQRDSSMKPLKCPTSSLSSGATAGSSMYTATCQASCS", "assay": "Agonist activity at human GLP-1R expressed in HEK293 cells coexpressing CRE LUC incubated for 5 hrs by luciferase based microplate reader analysis", "type": "functional, cell-based"}, "[2]": {"assay": "Metabolic stability in human liver microsomes assessed as half life at 1 uM measured after 5 to 45 mins in presence of NADPH by LC-MS/MS analysis", "type": "ADME, Microsome", "details": "time 5-45 min"}, "[3]": {"assay": "Metabolic stability in human liver microsomes assessed as intrinsic clearance at 1 uM measured after 5 to 45 mins in presence of NADPH by LC-MS/MS analysis", "type": "ADME, Microsome", "details": "time 5-45 min, read-out: CLH"}, "[4]": {"assay": "Metabolic stability in human liver microsomes assessed as hepatic clearance at 1 uM measured after 5 to 45 mins in presence of NADPH by LC-MS/MS analysis", "type": "ADME, Microsome", "details": "time 5-45 min"}, "Cytochrome P450 1A2": {"biological_target": "T1, Cytochrome P450 1A2 (Homo sapiens, UniProt P05177)", "T1 sequence (P05177 whole entry)": "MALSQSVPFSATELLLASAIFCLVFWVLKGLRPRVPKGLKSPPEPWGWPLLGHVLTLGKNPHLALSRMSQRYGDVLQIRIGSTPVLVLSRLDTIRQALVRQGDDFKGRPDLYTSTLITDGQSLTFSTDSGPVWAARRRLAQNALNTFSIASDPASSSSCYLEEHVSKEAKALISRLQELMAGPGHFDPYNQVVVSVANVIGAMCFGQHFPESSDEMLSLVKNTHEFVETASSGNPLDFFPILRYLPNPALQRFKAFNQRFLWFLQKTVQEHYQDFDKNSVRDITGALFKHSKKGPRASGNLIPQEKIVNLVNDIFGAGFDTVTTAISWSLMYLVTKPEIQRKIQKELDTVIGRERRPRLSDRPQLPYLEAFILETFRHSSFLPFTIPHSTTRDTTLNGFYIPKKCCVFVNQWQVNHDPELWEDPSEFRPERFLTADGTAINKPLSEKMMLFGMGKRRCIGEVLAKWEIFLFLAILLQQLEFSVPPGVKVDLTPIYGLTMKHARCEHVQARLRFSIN", "assay": "Inhibition of CYP1A2 in human liver microsomes incubated for 10 mins in presence of NADPH by LC-MS/MS analysis", "type": "ADME, Microsome"}, "Cytochrome P450 2B6": {"biological_target": "T2, Cytochrome P450 2B6 (Homo sapiens, UniProt P20813)", "T2 sequence (P20813 whole entry)": "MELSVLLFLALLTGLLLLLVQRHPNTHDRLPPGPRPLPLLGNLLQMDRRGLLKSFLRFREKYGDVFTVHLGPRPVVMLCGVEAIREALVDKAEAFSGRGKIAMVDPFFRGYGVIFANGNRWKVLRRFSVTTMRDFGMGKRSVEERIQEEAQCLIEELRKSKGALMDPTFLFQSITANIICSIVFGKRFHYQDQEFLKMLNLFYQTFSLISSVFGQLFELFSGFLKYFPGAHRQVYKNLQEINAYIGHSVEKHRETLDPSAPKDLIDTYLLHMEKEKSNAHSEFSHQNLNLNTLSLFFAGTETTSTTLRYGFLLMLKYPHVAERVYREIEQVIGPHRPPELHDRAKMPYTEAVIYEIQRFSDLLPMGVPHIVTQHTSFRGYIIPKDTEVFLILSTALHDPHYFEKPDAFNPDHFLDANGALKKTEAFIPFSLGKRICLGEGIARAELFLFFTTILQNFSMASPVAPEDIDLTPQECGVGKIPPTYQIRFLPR", "assay": "Inhibition of CYP2B6 in human liver microsomes incubated for 10 mins in presence of NADPH by LC-MS/MS analysis", "type": "ADME, Microsome"}, "Cytochrome P450 2C8": {"biological_target": "T3, Cytochrome P450 2C8 (Homo sapiens, UniProt P10632)", "T3 sequence (P10632 whole entry)": "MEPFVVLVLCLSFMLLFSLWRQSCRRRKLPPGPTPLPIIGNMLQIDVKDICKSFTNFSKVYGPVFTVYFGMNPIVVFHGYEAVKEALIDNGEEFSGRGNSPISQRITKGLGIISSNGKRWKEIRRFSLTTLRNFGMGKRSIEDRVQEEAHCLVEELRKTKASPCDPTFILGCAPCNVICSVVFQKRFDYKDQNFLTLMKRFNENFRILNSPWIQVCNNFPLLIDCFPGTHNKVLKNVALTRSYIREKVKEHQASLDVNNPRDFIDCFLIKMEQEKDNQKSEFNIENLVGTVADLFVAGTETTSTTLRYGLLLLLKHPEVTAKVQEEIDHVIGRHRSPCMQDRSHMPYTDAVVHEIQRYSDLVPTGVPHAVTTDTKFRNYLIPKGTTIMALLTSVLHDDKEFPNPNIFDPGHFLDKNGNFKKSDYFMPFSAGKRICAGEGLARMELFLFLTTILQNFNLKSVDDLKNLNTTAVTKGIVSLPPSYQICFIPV", "assay": "Inhibition of CYP2C8 in human liver microsomes incubated for 20 mins in presence of NADPH by LC-MS/MS analysis", "type": "ADME, Microsome"}, "Cytochrome P450 2C9": {"biological_target": "Cytochrome P450 2C9 (Homo sapiens, UniProt P11712)", "sequence (P11712 whole entry)": "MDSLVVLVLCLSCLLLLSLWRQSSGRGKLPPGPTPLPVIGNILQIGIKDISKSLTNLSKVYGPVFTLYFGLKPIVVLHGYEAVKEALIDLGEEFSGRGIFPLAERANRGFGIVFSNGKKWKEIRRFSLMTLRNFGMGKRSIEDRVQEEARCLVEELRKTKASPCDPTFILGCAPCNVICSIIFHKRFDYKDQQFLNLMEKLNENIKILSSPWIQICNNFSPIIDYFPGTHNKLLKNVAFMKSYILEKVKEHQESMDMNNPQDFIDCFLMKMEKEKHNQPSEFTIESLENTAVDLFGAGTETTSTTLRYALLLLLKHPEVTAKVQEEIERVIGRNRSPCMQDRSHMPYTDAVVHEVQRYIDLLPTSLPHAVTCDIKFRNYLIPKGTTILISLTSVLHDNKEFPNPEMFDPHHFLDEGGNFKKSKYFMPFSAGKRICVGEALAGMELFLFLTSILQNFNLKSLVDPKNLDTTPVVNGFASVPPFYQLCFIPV", "assay": "Inhibition of CYP2C9 in human liver microsomes incubated for 10 mins in presence of NADPH by LC-MS/MS analysis", "type": "ADME, Microsome"}, "Cytochrome P450 2C19": {"biological_target": "Cytochrome P450 2C19 (Homo sapiens, UniProt P33261)", "sequence (P33261 whole entry)": "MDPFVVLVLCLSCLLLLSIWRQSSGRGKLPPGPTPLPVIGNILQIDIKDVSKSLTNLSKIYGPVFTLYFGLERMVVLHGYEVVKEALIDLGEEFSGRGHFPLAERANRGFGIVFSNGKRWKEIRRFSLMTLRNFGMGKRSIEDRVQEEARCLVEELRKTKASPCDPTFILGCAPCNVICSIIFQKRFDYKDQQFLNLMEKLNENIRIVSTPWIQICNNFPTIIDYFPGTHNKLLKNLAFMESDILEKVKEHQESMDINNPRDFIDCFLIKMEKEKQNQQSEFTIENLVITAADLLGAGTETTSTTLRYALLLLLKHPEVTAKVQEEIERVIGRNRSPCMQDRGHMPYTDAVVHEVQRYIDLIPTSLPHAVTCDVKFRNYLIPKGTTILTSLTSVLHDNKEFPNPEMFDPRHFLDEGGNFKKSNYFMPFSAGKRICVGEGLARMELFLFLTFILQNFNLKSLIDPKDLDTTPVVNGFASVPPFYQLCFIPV", "assay": "Inhibition of CYP2C19 in human liver microsomes incubated for 45 mins in presence of NADPH by LC-MS/MS analysis", "type": "ADME, Microsome"}, "Cytochrome P450 2D6": {"biological_target": "Cytochrome P450 2D6 (Homo sapiens, UniProt P10635)", "sequence (P10635 whole entry)": "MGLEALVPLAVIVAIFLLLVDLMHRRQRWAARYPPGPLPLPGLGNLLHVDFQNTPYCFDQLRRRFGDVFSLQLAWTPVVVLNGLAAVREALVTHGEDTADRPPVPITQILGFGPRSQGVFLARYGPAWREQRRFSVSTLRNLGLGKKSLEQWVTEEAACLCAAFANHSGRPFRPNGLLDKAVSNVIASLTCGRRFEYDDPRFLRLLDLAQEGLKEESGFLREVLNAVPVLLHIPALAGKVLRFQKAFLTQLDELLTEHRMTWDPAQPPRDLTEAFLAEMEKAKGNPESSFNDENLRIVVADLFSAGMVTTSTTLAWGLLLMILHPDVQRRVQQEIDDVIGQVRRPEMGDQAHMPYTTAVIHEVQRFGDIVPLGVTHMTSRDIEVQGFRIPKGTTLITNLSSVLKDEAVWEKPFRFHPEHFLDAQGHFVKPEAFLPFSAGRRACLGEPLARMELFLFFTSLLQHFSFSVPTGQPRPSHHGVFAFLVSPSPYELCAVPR", "assay": "Inhibition of CYP2D6 in human liver microsomes incubated for 20 mins in presence of NADPH by LC-MS/MS analysis", "type": "ADME, Microsome"}, "Cytochrome P450 3A4": {"biological_target": "Cytochrome P450 3A4 (Homo sapiens, UniProt P08684)", "sequence (P08684 whole entry)": "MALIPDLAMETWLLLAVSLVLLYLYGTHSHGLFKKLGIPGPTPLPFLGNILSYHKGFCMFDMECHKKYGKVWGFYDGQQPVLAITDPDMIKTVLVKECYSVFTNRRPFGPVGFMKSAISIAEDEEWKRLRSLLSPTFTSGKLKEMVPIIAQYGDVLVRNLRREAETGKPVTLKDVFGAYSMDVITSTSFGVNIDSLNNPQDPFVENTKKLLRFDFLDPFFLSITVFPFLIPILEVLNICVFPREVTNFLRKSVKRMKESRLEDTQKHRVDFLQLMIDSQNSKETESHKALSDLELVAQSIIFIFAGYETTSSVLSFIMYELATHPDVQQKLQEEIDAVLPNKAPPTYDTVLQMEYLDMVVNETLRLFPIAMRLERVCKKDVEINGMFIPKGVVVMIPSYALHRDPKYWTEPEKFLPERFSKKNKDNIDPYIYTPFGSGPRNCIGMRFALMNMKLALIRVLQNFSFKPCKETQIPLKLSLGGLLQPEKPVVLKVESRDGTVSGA", "assay": "Inhibition of CYP3A4 in human liver microsomes using testosterone as substrate incubated for 5 mins in presence of NADPH by LC-MS/MS analysis", "type": "ADME, Microsome"}, "[5]": {"assay": "Cmax in Sprague-Dawley rat at 10 mg/kg, po measured up to 24 hrs by LC-MS/MS analysis", "type": "ADME, organism-based", "details": "in vivo"}, "[6]": {"assay": "Tmax in Sprague-Dawley rat at 10 mg/kg, po measured up to 24 hrs by LC-MS/MS analysis", "type": "ADME, organism-based", "details": "in vivo"}, "[7]": {"assay": "AUC last in Sprague-Dawley rat at 10 mg/kg, po measured up to 24 hrs by LC-MS/MS analysis", "type": "ADME, organism-based", "details": "in vivo"}},
  "data": [
    {"smiles": "Cn1ccc2ccc(COc3cccc(-c4ccc(Cc5nc6ccc(C(=O)O)cc6n5C[C@@H]5CCO5)c(F)c4)n3)cc21", "values": [
      {"measurement": "EC50", "setting": "[1]", "result": 198, "unit": "nM"}
    ]},
    {"smiles": "COCCn1c(Cc2ccc(-c3cccc(OCc4ccc(Cl)c5ccoc45)n3)cc2F)nc2ccc(C(=O)O)cc21", "values": [
      {"measurement": "EC50", "setting": "[1]", "result": 359, "unit": "nM"}
    ]},
    {"smiles": "Cc1cc(-c2cccc(OCc3ccc(C#N)cc3F)n2)ccc1Cc1nc2ccc(C(=O)O)cc2n1C[C@@H]1CCO1", "values": [
      {"measurement": "EC50", "setting": "[1]", "result": 13.5, "unit": "nM"}
    ]},
    {"smiles": "N#Cc1ccc(COc2cccc(N3CCC(Cc4nc5ccc(C(=O)O)cc5n4C[C@@H]4CCO4)CC3)n2)c(F)c1", "values": [
      {"measurement": "EC50", "setting": "[1]", "result": 85.5, "unit": "nM"}
    ]},
    {"smiles": "N#Cc1ccc(COc2cccc(C3CCN(Cc4nc5ccc(C(=O)O)cc5n4C[C@@H]4CCO4)CC3)n2)c(F)c1", "note": "[DANUGLIPRON]", "values": [
      {"measurement": "half-life at 1 µM", "setting": "[2]", "result": 1.8, "unit": "h"},
      {"measurement": "CLint scaled at 1 µM", "setting": "[3]", "result": 16, "unit": "mL/min/kg"},
      {"measurement": "CLhep predicted at 1 µM", "setting": "[4]", "result": 9.04, "unit": "mL/min/kg"},
      {"measurement": "IC50", "setting": "Cytochrome P450 1A2", "result": "> 30000", "unit": "nM"},
      {"measurement": "IC50", "setting": "Cytochrome P450 2B6", "result": "> 30000", "unit": "nM"},
      {"measurement": "IC50", "setting": "Cytochrome P450 2C8", "result": 3340, "unit": "nM"},
      {"measurement": "IC50", "setting": "Cytochrome P450 2C9", "result": "> 30000", "unit": "nM"},
      {"measurement": "IC50", "setting": "Cytochrome P450 2C19", "result": "> 30000", "unit": "nM"},
      {"measurement": "IC50", "setting": "Cytochrome P450 2D6", "result": "> 30000", "unit": "nM"},
      {"measurement": "IC50", "setting": "Cytochrome P450 3A4", "result": "> 30000", "unit": "nM"},
      {"measurement": "Cmax", "setting": "[5]", "result": 197, "unit": "ng/mL"},
      {"measurement": "Tmax", "setting": "[6]", "result": 0.63, "unit": "h"},
      {"measurement": "AUC(0-t) at 24 h", "setting": "[7]", "result": 714, "unit": "ng·h/mL"}
    ]}
  ]
}
